25 compounds from US12655106B2 (Eikonizo Therapeutics, Inc., priority 2021, dated 2026) can be followed below.

For one assay, the target named is T1, Full length Human HDAC6 (Homo sapiens, UniProt Q9UBN7).
T1 construct: Full length Human HDAC6; FLAG (C); host or cells: baculovirus expression system
T1 sequence (Q9UBN7 1-1215): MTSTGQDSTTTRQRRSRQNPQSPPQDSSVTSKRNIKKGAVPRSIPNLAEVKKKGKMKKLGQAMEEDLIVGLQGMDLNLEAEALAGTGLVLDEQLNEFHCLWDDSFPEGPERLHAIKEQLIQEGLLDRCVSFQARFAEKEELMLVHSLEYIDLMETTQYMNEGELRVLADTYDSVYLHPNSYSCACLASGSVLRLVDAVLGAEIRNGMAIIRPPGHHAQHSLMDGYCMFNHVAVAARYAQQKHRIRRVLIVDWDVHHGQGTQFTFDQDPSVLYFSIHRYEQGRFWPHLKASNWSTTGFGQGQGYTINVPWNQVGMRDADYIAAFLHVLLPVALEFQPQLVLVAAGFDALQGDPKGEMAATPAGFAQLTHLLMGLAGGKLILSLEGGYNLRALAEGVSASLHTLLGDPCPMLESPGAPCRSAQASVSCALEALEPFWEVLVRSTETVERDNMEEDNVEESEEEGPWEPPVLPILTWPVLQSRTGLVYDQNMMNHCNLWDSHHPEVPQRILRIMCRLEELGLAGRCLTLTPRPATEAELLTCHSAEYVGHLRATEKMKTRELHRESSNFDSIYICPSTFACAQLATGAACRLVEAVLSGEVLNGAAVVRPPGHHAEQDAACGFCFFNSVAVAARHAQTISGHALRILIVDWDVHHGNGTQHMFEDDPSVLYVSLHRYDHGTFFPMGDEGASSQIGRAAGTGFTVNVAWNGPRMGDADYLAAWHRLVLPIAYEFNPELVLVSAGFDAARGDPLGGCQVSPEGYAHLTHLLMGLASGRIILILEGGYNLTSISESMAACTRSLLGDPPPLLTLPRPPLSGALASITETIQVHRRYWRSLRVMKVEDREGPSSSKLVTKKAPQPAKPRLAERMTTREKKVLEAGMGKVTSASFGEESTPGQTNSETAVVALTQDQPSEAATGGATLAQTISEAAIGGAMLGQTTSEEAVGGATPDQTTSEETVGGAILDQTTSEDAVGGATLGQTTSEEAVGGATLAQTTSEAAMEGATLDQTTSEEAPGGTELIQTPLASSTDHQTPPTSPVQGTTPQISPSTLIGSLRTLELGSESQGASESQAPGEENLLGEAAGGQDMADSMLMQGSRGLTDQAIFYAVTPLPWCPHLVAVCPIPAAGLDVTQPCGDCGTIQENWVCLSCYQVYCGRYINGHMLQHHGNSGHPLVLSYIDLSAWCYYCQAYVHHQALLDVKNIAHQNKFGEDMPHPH
The assay can be described thus: Caliper endpoint assay for HDAC enzymatic activity (HDAC6). Type of assay: biochemical. To be noted: for IC50: in vitro enzymatic, Caliper endpoint assay, 30 min pre-incubation, 1 μM substrate peptide; for Selectivity (6 v 8): ratio of HDAC8 IC50/HDAC6 IC50.

The target in a further assay is T2, Full length Human HDAC8 (Homo sapiens, UniProt Q9BY41).
T2 construct: Full length Human HDAC8; HIS (N); host or cells: baculovirus expression system
T2 sequence (Q9BY41 1-377): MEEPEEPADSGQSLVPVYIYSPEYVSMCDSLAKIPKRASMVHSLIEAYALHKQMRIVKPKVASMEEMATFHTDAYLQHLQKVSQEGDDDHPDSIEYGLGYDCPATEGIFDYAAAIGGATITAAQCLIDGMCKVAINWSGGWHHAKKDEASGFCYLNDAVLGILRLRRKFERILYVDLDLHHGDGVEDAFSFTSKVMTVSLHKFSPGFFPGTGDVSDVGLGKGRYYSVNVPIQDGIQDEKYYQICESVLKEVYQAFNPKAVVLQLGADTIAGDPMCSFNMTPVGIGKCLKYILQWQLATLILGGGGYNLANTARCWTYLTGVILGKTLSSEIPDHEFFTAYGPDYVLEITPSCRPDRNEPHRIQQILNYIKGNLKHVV
The experiment in a line: Caliper endpoint assay for HDAC enzymatic activity (HDAC8). Type of assay: biochemical. To be noted: in vitro enzymatic, 30 min pre-incubation, 1 μM substrate peptide.

With `O=C(NO)c1cc(F)c2c(c1)CCN([C@H]1CCC3(CCC3)C1)C2` (single isomer, unassigned) [Compound 383], on Full length Human HDAC6, the IC50 lay within 0.001 to 0.1 µM and the “Selectivity (6 v 8)” value is given as “V (V: >1000)”. This compound also showed a 50% inhibitory concentration (IC50) at Full length Human HDAC8 of 10 to 100 µM.

For `CC[C@H](c1ccccc1)N1CCc2cc(C(=O)NO)cc(F)c2C1` [Compound 30], the IC50 was 0.001 to 0.1 µM on Full length Human HDAC6 and 1 to 10 µM against Full length Human HDAC8.

On to `CC[C@H]1Cc2c(F)cc(C(=O)NO)cc2CN1C1CC2(CCCCC2)C1` (single isomer, unassigned) [Compound 233], for which, on Full length Human HDAC6, the IC50 lay within 0.001 to 0.1 µM and the “Selectivity (6 v 8)” value is on record as “IV (IV: >100-1000)”. For the same compound, the IC50 at Full length Human HDAC8 was 10 to 100 µM.

`CC[C@H]1Cc2c(F)cc(C(=O)NO)cc2CN1CC1CCC2(CCC2)CC1` (single isomer, unassigned) [Compound 528]: at Full length Human HDAC6, the 50% inhibitory concentration (IC50) is 0.001 to 0.1 µM and the “Selectivity (6 v 8)” value was “III (III: >10-100)”. Further, at Full length Human HDAC8, the concentration for half-maximal inhibition (IC50) was in the range of 1 to 10 µM.

As for `CC[C@@H]1Cc2c(F)cc(C(=O)NO)cc2CN1CC1COC1` (single isomer, unassigned) [Compound 217], on Full length Human HDAC6, the IC50 is 0.001 to 0.1 µM and the “Selectivity (6 v 8)” value is given as “IV (IV: >100-1000)”. The IC50 against Full length Human HDAC8 was 10 to 100 µM.

In the case of `CC[C@@H]1Cc2c(F)cc(C(=O)NO)cc2CN1CC12CC3CC(CC(C3)C1)C2` (single isomer, unassigned) [Compound 507], on Full length Human HDAC6, the IC50 fell in the range of 0.1 to 1 µM and the “Selectivity (6 v 8)” value was “III (III: >10-100)”. The IC50 against Full length Human HDAC8 was 1 to 10 µM.

For the compound `CC1(C)C[C@@H]2Cc3c(F)cc(C(=O)NO)cc3CN2C1` [Compound 127], on Full length Human HDAC6, the IC50 lay in the range of 0.001 to 0.1 µM and the “Selectivity (6 v 8)” value is “IV (IV: >100-1000)”. At Full length Human HDAC8, this compound returned an IC50 of 1 to 10 µM.

`O=C(NO)c1ccc2c(c1)C[C@H]1COCC(=O)N1C2` (single isomer, unassigned) [Compound 134]: the 50% inhibitory concentration (IC50) was 0.001 to 0.1 µM against Full length Human HDAC6 and 1 to 10 µM on Full length Human HDAC8.

Take `O=C(NO)c1cc(F)c2c(c1)CCN(C1CCC13CCCC3)C2` (centres unmarked) [Compound 314, 8-fluoro-2-spiro[3.4]octan-3-yl-3,4-dihydro-1H-isoquinoline-6-carbohydroxamic acid]: at Full length Human HDAC6, the IC50 fell in the range of 0.001 to 0.1 µM and the “Selectivity (6 v 8)” value is on record as “IV (IV: >100-1000)”. In addition, on Full length Human HDAC8, the 50% inhibitory concentration (IC50) is 1 to 10 µM.

Consider `O=C(NO)c1ccc2c(c1)CN1CCC[C@H]21` [Compound 164], for which the IC50 against Full length Human HDAC6 and against Full length Human HDAC8 was 1 to 10 µM throughout. For the same compound, the “Selectivity (6 v 8)” value at Full length Human HDAC6 is listed as “II (II: >1-10)”.

With `CN1CC2(CCC(CN3CCc4cc(C(=O)NO)cc(F)c4C3)CC2)C1` [Compound 465, 8-fluoro-2-[(2-methyl-2-azaspiro[3.5]nonan-7-yl)methyl]-3,4-dihydro-1H-isoquinoline-6-carbohydroxamic acid], on Full length Human HDAC6, the half-inhibitory concentration (IC50) is 0.001 to 0.1 µM and the “Selectivity (6 v 8)” value is “V (V: >1000)”. The 50% inhibitory concentration (IC50) on Full length Human HDAC8 was 10 to 100 µM.

In the case of `O=C(NO)c1cc(F)c2c(c1)CCN(C1CCC3(COC3)C1)C2` (centres unmarked) [Compound 387, 8-fluoro-2-(2-oxaspiro[3.4]octan-6-yl)-3,4-dihydro-1H-isoquinoline-6-carbohydroxamic acid], the values for the IC50 on Full length Human HDAC6 and against Full length Human HDAC8 were 0.001 to 0.1 µM and 10 to 100 µM, respectively. Also, the “Selectivity (6 v 8)” value at Full length Human HDAC6 was “IV (IV: >100-1000)”.

As for `CN1[C@@H]2CC[C@H]1CC(CN1CCc3cc(C(=O)NO)cc(F)c3C1)C2` (single isomer, unassigned) [Compound 482], at Full length Human HDAC6, the IC50 lay in the range of 0.001 to 0.1 µM and the “Selectivity (6 v 8)” value is reported as “IV (IV: >100-1000)”. The compound also showed an IC50 against Full length Human HDAC8 of 1 to 10 µM.

`O=C(NO)c1cc(F)c2c(c1)CCN([C@H]1C[C@@]3(CCCN(C4CC4)C3)C1)C2` (single isomer, unassigned) [Compound 346, 2-((2s,4r)-6-cyclopropyl-6-azaspiro[3.5]nonan-2-yl)-8-fluoro-N-hydroxy-1,2,3,4-tetrahydroisoquinoline-6-carboxamide]: on Full length Human HDAC6, the IC50 lay in the range of 0.001 to 0.1 µM and the “Selectivity (6 v 8)” value is reported as “IV (IV: >100-1000)”. This compound also returned an IC50 on Full length Human HDAC8 of 1 to 10 µM.

Consider `CN1CC2(CCC(N3CCc4cc(C(=O)NO)cc(F)c4C3)CC2)C1` [Compound 427, 8-fluoro-2-(2-methyl-2-azaspiro[3.5]nonan-7-yl)-3,4-dihydro-1H-isoquinoline-6-carbohydroxamic acid], for which, on Full length Human HDAC6, the 50% inhibitory concentration (IC50) is 0.001 to 0.1 µM and the “Selectivity (6 v 8)” value was “V (V: >1000)”. The compound also gave an IC50 against Full length Human HDAC8 of 10 to 100 µM.

Turning to `O=C(NO)c1cc(F)c2c(c1)CN(CC13CC4CC(CC(C4)O1)C3)CC2` [Compound 213, 2-(((1r,3s,5R,7S)-2-oxaadamantan-1-yl)methyl)-5-fluoro-N-hydroxy-1,2,3,4-tetrahydroisoquinoline-7-carboxamide], on Full length Human HDAC6, the IC50 lay within 0.001 to 0.1 µM and the “Selectivity (6 v 8)” value was “III (III: >10-100)”. The concentration for half-maximal inhibition (IC50) at Full length Human HDAC8 was 0.1 to 1 µM.

Regarding `C[C@H]1C[C@@H]2c3c(F)cc(C(=O)NO)cc3CCN2C1` (single isomer, unassigned) [Compound 153], the results for the IC50 on Full length Human HDAC6 and against Full length Human HDAC8 were 0.1 to 1 µM and 1 to 10 µM, respectively.

For `O=C(NO)c1cc(F)c2c(c1)CCN(CC1CC3(CCNCC3)C1)C2` [Compound 468, 2-(7-azaspiro[3.5]nonan-2-ylmethyl)-8-fluoro-3,4-dihydro-1H-isoquinoline-6-carbohydroxamic acid], the figures for the IC50 against Full length Human HDAC6 and on Full length Human HDAC8 were 0.001 to 0.1 µM and 10 to 100 µM, respectively. Moreover, the “Selectivity (6 v 8)” value at Full length Human HDAC6 was “V (V: >1000)”.

For the compound `CC(=O)N1CC2(CCC(N3CCc4cc(C(=O)NO)cc(F)c4C3)CC2)C1` [Compound 429, 2-(2-acetyl-2-azaspiro[3.5]nonan-7-yl)-8-fluoro-3,4-dihydro-1H-isoquinoline-6-carbohydroxamic acid], the IC50 at Full length Human HDAC6 was 0.001 to 0.1 µM; against Full length Human HDAC8 it was 10 to 100 µM. At Full length Human HDAC6, the “Selectivity (6 v 8)” value was “IV (IV: >100-1000)”.

Consider `CC[C@@H]1Cc2c(F)cc(C(=O)NO)cc2CN1CC1CCC2(CCC2)CC1` (single isomer, unassigned) [Compound 527], for which, on Full length Human HDAC6, the IC50 is 0.001 to 0.1 µM and the “Selectivity (6 v 8)” value is listed as “III (III: >10-100)”. Further, the IC50 at Full length Human HDAC8 lay in the range of 1 to 10 µM.

Consider `O=C(NO)c1cc(F)c2c(c1)CCN([C@H]1CCN(Cc3ccccc3)C3(CCC3)C1)C2` (single isomer, unassigned) [Compound 443], for which, at Full length Human HDAC6, the IC50 fell in the range of 0.001 to 0.1 µM and the “Selectivity (6 v 8)” value is “IV (IV: >100-1000)”. The compound also registered an IC50 against Full length Human HDAC8 of 10 to 100 µM.

As for `CN1CC[C@@]2(CC[C@@H](N3CCc4cc(C(=O)NO)cc(F)c4C3)C2)C1` (single isomer, unassigned) [Compound 404], on Full length Human HDAC6, the IC50 was 0.001 to 0.1 µM and the “Selectivity (6 v 8)” value was “IV (IV: >100-1000)”. The same compound gave an IC50 on Full length Human HDAC8 of 10 to 100 µM.

In the case of `CN1CC[C@]2(CC[C@H](N3CCc4cc(C(=O)NO)cc(F)c4C3)C2)C1` (single isomer, unassigned) [Compound 403], at Full length Human HDAC6, the IC50 is 0.001 to 0.1 µM and the “Selectivity (6 v 8)” value is “V (V: >1000)”. Moreover, at Full length Human HDAC8, the IC50 lay in the range of 10 to 100 µM.

With `O=C(NO)c1cc(F)c2c(c1)CCN(C[C@@H]1CCC3(CCCCC3)C1)C2` (single isomer, unassigned) [Compound 107], the values for the concentration for half-maximal inhibition (IC50) on Full length Human HDAC6 and against Full length Human HDAC8 were 0.001 to 0.1 µM and 10 to 100 µM, respectively.

Turning to `CC[C@H]1Cc2c(F)cc(C(=O)NO)cc2CN1C1CCCCC1` (single isomer, unassigned) [Compound 583], the IC50 lay in the range of 0.1 to 1 µM against Full length Human HDAC6 and 10 to 100 µM on Full length Human HDAC8. The “Selectivity (6 v 8)” value on Full length Human HDAC6 was “III (III: >10-100)”.
